According to ChEMBL document CHEMBL1145260, “Design, synthesis and structure-activity relationships of 6-O-arylpropargyl diazalides with potent activity against multidrug-resistant Streptococcus pneumoniae” (2005):
In brackets after ≈: the same amount, converted by molar mass.

Key:
Format in all cases: functional
Staphylococcus aureus [1] = experiment: Minimum inhibitory concentration against Staphylococcus aureus A5177 (erythromycin-resistant strain
Streptococcus pyogenes [2] = experiment: Minimum inhibitory concentration against Streptococcus pyogenes 930 (erythromycin-resistant strain)
Staphylococcus aureus [3] = experiment: Minimum inhibitory concentration against Staphylococcus aureus 6538P (erythromycin-susceptible strain)
Streptococcus pneumoniae [4] = experiment: Minimum inhibitory concentration against Streptococcus pneumoniae 5649 strain
Streptococcus pyogenes [5] = experiment: Minimum inhibitory concentration against Streptococcus pyogenes EES61 (erythromycin-susceptible strain)
Streptococcus pneumoniae [6] = experiment: Minimum inhibitory concentration against Streptococcus pneumoniae ATCC 6303 (erythromycin-susceptible strain)
Haemophilus influenzae = experiment: Minimum inhibitory concentration against Haemophilus influenzae GYR1435 (erythromycin susceptible strain)
Streptococcus pneumoniae [7] = experiment: Minimum inhibitory concentration against Streptococcus pneumoniae 5979 strain

For `CC[C@H]1OC(=O)[C@@](C)(F)C(=O)[C@H](C)[C@@H](O[C@@H]2O[C@H](C)C[C@H](N(C)C)[C@H]2O)[C@@](C)(OCC#Cc2ccc(-c3nnn(C)n3)s2)C[C@@H](C)C2=NCCN3C(=O)O[C@@]1(C)[C@H]3[C@H]2C`, which MIC (Staphylococcus aureus [1]) is on record?
Its MIC is 0.125 µg/mL (≈ 0.148 µM).

And the MIC (Streptococcus pyogenes [2])?
Its MIC is 2 µg/mL (≈ 2.37 µM).

What about the MIC (Staphylococcus aureus [3]) of the same molecule?
Its MIC is 0.5 µg/mL (≈ 0.592 µM).

And the MIC (Streptococcus pneumoniae [4])?
The MIC was 0.25 µg/mL (≈ 0.296 µM).

What about the MIC (Streptococcus pyogenes [5]) of the same molecule?
The MIC was at most 0.008 µg/mL.

And the MIC (Streptococcus pneumoniae [6])?
Its MIC is at most 0.008 µg/mL.

What about the MIC (Haemophilus influenzae) of the same molecule?
Its MIC is 4 µg/mL (≈ 4.74 µM).

What about the MIC (Streptococcus pneumoniae [7]) of the same molecule?
Its MIC is 0.125 µg/mL (≈ 0.148 µM).

With `CC[C@H]1OC(=O)[C@H](C)C(=O)[C@H](C)[C@@H](O[C@@H]2O[C@H](C)C[C@H](N(C)C)[C@H]2O)[C@@](C)(OCC#CCCc2ccc(-c3ccccn3)cc2)C[C@@H](C)C2=NCCN3C(=O)O[C@@]1(C)[C@H]3[C@H]2C` as the molecule, how does the MIC (Staphylococcus aureus [1]) read?
The MIC was 0.25 µg/mL (≈ 0.297 µM).

What about the MIC (Streptococcus pyogenes [2]) of the same molecule?
Its MIC is 0.5 µg/mL (≈ 0.593 µM).

And the MIC (Staphylococcus aureus [3])?
The MIC was 0.25 µg/mL (≈ 0.297 µM).

What about the MIC (Streptococcus pneumoniae [4]) of the same molecule?
Its MIC is 0.06 µg/mL (≈ 0.0712 µM).

And the MIC (Streptococcus pyogenes [5])?
The MIC was at most 0.008 µg/mL.

And the MIC (Streptococcus pneumoniae [6])?
The MIC was at most 0.008 µg/mL.

What about the MIC (Haemophilus influenzae) of the same molecule?
Its MIC is 2 µg/mL (≈ 2.37 µM).

What about the MIC (Streptococcus pneumoniae [7]) of the same molecule?
Its MIC is 0.03 µg/mL (≈ 0.0356 µM).

How did the MIC (Staphylococcus aureus [1]) turn out when `CC[C@H]1OC(=O)[C@H](C)C(=O)[C@H](C)[C@@H](O[C@@H]2O[C@H](C)C[C@H](N(C)C)[C@H]2O)[C@@](C)(OC)C[C@@H](C)C2=NCCN3C(=O)O[C@@]1(C)[C@H]3[C@H]2C` was run?
The MIC was 0.1 µg/mL (≈ 0.157 µM).

And the MIC (Streptococcus pyogenes [2])?
Its MIC is over 128 µg/mL.

And the MIC (Staphylococcus aureus [3])?
The MIC was 0.1 µg/mL (≈ 0.157 µM).

What about the MIC (Streptococcus pneumoniae [4]) of the same molecule?
The MIC was 1 µg/mL (≈ 1.57 µM).

And the MIC (Streptococcus pyogenes [5])?
Its MIC is 0.06 µg/mL (≈ 0.0941 µM).

And the MIC (Streptococcus pneumoniae [6])?
The MIC was 0.06 µg/mL (≈ 0.0941 µM).

And the MIC (Haemophilus influenzae)?
The MIC was 4 µg/mL (≈ 6.27 µM).

What about the MIC (Streptococcus pneumoniae [7]) of the same molecule?
The MIC was over 128 µg/mL.

`CC[C@H]1OC(=O)[C@H](C)C(=O)[C@H](C)[C@@H](O[C@@H]2O[C@H](C)C[C@H](N(C)C)[C@H]2O)[C@@](C)(OCC#Cc2cccs2)C[C@@H](C)C2=NCCN3C(=O)O[C@@]1(C)[C@H]3[C@H]2C` was tested. Which MIC (Staphylococcus aureus [1]) did it give?
Its MIC is 0.1 µg/mL (≈ 0.134 µM).

What about the MIC (Streptococcus pyogenes [2]) of the same molecule?
Its MIC is 64 µg/mL (≈ 86 µM).

What about the MIC (Staphylococcus aureus [3]) of the same molecule?
Its MIC is 0.1 µg/mL (≈ 0.134 µM).

And the MIC (Streptococcus pneumoniae [4])?
Its MIC is 0.25 µg/mL (≈ 0.336 µM).

What about the MIC (Streptococcus pyogenes [5]) of the same molecule?
The MIC was 0.03 µg/mL (≈ 0.0403 µM).

What about the MIC (Streptococcus pneumoniae [6]) of the same molecule?
The MIC was 0.03 µg/mL (≈ 0.0403 µM).

And the MIC (Haemophilus influenzae)?
Its MIC is 4 µg/mL (≈ 5.38 µM).

And the MIC (Streptococcus pneumoniae [7])?
The MIC was over 128 µg/mL.

Which MIC (Staphylococcus aureus [1]) does the source give for `CC[C@H]1OC(=O)[C@H](C)C(=O)[C@H](C)[C@@H](O[C@@H]2O[C@H](C)C[C@H](N(C)C)[C@H]2O)[C@@](C)(OCC#Cc2ccccc2)C[C@@H](C)C2=NCCN3C(=O)O[C@@]1(C)[C@H]3[C@H]2C` here?
The MIC was 0.2 µg/mL (≈ 0.271 µM).

What about the MIC (Streptococcus pyogenes [2]) of the same molecule?
Its MIC is 64 µg/mL (≈ 86.7 µM).

And the MIC (Staphylococcus aureus [3])?
Its MIC is 0.2 µg/mL (≈ 0.271 µM).

What about the MIC (Streptococcus pneumoniae [4]) of the same molecule?
Its MIC is 0.5 µg/mL (≈ 0.678 µM).

What about the MIC (Streptococcus pyogenes [5]) of the same molecule?
Its MIC is 0.06 µg/mL (≈ 0.0813 µM).

And the MIC (Streptococcus pneumoniae [6])?
Its MIC is 0.03 µg/mL (≈ 0.0407 µM).

And the MIC (Haemophilus influenzae)?
Its MIC is 8 µg/mL (≈ 10.8 µM).

What about the MIC (Streptococcus pneumoniae [7]) of the same molecule?
Its MIC is over 128 µg/mL.

With `CC[C@H]1OC(=O)[C@H](C)C(=O)[C@H](C)[C@@H](O[C@@H]2O[C@H](C)C[C@H](N(C)C)[C@H]2O)[C@@](C)(OCC#CCCc2ccc(-c3cccs3)cc2)C[C@@H](C)C2=NCCN3C(=O)O[C@@]1(C)[C@H]3[C@H]2C` as the molecule, how does the MIC (Staphylococcus aureus [1]) read?
The MIC was 0.5 µg/mL (≈ 0.59 µM).

And the MIC (Streptococcus pyogenes [2])?
Its MIC is 0.5 µg/mL (≈ 0.59 µM).

And the MIC (Staphylococcus aureus [3])?
The MIC was 1 µg/mL (≈ 1.18 µM).

And the MIC (Streptococcus pneumoniae [4])?
Its MIC is 0.25 µg/mL (≈ 0.295 µM).

And the MIC (Streptococcus pyogenes [5])?
Its MIC is at most 0.008 µg/mL.

What about the MIC (Streptococcus pneumoniae [6]) of the same molecule?
Its MIC is 0.015 µg/mL (≈ 0.0177 µM).

And the MIC (Haemophilus influenzae)?
The MIC was 8 µg/mL (≈ 9.43 µM).

What about the MIC (Streptococcus pneumoniae [7]) of the same molecule?
Its MIC is 0.125 µg/mL (≈ 0.147 µM).

Which MIC (Staphylococcus aureus [1]) does the source give for `CC[C@H]1OC(=O)[C@H](C)C(=O)[C@H](C)[C@@H](O[C@@H]2O[C@H](C)C[C@H](N(C)C)[C@H]2O)[C@@](C)(OCC#Cc2cnc3c(OC)cccc3c2)C[C@@H](C)C2=NCCN3C(=O)O[C@@]1(C)[C@H]3[C@H]2C` here?
The MIC was 0.06 µg/mL (≈ 0.0733 µM).

And the MIC (Streptococcus pyogenes [2])?
Its MIC is 4 µg/mL (≈ 4.88 µM).

What about the MIC (Staphylococcus aureus [3]) of the same molecule?
The MIC was 0.25 µg/mL (≈ 0.305 µM).

And the MIC (Streptococcus pneumoniae [4])?
Its MIC is 0.06 µg/mL (≈ 0.0733 µM).

What about the MIC (Streptococcus pyogenes [5]) of the same molecule?
Its MIC is at most 0.008 µg/mL.

And the MIC (Streptococcus pneumoniae [6])?
Its MIC is at most 0.008 µg/mL.

What about the MIC (Haemophilus influenzae) of the same molecule?
The MIC was 2 µg/mL (≈ 2.44 µM).

What about the MIC (Streptococcus pneumoniae [7]) of the same molecule?
The MIC was 8 µg/mL (≈ 9.77 µM).

How did the MIC (Staphylococcus aureus [1]) turn out when `CC[C@H]1OC(=O)[C@H](C)C(=O)[C@H](C)[C@@H](O[C@@H]2O[C@H](C)C[C@H](N(C)C)[C@H]2O)[C@@](C)(OCC#Cc2ccc(-c3cccs3)cc2)C[C@@H](C)C2=NCCN3C(=O)O[C@@]1(C)[C@H]3[C@H]2C` was run?
Its MIC is 0.03 µg/mL (≈ 0.0366 µM).

And the MIC (Streptococcus pyogenes [2])?
Its MIC is 4 µg/mL (≈ 4.88 µM).

What about the MIC (Staphylococcus aureus [3]) of the same molecule?
The MIC was 0.5 µg/mL (≈ 0.61 µM).

What about the MIC (Streptococcus pneumoniae [4]) of the same molecule?
Its MIC is at most 0.008 µg/mL.

What about the MIC (Streptococcus pyogenes [5]) of the same molecule?
Its MIC is at most 0.008 µg/mL.

What about the MIC (Streptococcus pneumoniae [6]) of the same molecule?
The MIC was at most 0.008 µg/mL.

What about the MIC (Haemophilus influenzae) of the same molecule?
The MIC was 2 µg/mL (≈ 2.44 µM).

What about the MIC (Streptococcus pneumoniae [7]) of the same molecule?
The MIC was at most 0.008 µg/mL.
